Experiment [1] concerns the target T1, Choline kinase alpha (ChoK) (Homo sapiens, UniProt P35790). Kind of experiment: […]-choline phosphorylation in MDA-MB-231 cells. The experiment is classed as cell-based.
Experiment [2] has as its target T1, Choline kinase alpha (ChoK). Put plainly: […]-choline phosphorylation in intact MDA-MB-231 cells, […] h. The experiment is classed as cell-based.

As a reminder, the IC50 is the concentration that gives 50% inhibition.

T1 sequence (P35790 whole entry): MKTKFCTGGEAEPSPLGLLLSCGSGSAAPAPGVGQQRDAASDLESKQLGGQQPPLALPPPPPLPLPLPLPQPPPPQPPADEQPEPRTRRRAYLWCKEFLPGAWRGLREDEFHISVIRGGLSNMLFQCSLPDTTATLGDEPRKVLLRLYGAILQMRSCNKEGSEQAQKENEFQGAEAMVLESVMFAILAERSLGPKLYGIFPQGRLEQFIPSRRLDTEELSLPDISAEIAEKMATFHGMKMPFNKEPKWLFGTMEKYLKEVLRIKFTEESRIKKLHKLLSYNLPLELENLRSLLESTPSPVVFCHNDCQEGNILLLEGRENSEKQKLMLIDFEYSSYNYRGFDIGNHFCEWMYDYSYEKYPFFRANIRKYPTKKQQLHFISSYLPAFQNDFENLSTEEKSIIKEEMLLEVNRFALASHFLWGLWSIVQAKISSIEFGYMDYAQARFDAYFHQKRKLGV

Consider `CC1(C)C(/C=C/C=C/C=C/C=C2\N(CCO)c3ccccc3C2(C)C)=[N+](CCO)c2ccccc21` [JAS239, 1-(2-hydroxyethyl)-2-((1E,3E,5E)-7-((Z/E)-1-(2-hydroxyethyl)-3,3-dimethylindolin-2-ylidene)hepta-1,3,5-trien-1-yl)-3,3-dimethyl-3H-indol-1-ium chloride], for which, in experiment [1], half-maximal inhibition (IC50) was put at 4.6 µM.

Molecule `CN(C)c1cc[n+](Cc2ccc(CCCCc3ccc(C[n+]4ccc(N(C)C)cc4)cc3)cc2)cc1` [MN58b, 1,1′-((butane-1,4-diylbis(4,1-phenylene))bis(methylene))bis(4-(dimethylamino)pyridin-1-ium) bromide] displayed a half-maximal inhibitory concentration (IC50) in experiment [2] of 2.3 µM.

Values taken from article PMC4209917 (Molecular cancer therapeutics, 2014).
